Laboratory results published in publication PMC3800266 (Journal of the American Chemical Society, 2013).
Values after ≈ are worked out from the molar mass of the structure shown.

How the values were obtained:
[1] = system: methicillin-resistant S. aureus, ATCC 43300
[2] = system: methicillin-susceptible S. aureus, ATOC 29213
[3] = system: vancomycin-resistant enterococci (VanB), ATCC 51299; conditions: teicoplanin susceptible
[4] = system: vancomycin-susceptible enterococci, ATCC 29212
VRE (VanA), MMX 486 [5] = conditions: vancomycin and teicoplanin resistant
[6] = system: vancomycin-resistant enterococci (VanB), ATCC 51299; experiment: microbe, parasite or virus in culture; conditions: Enterococcus, ATCC51299|VRE, read-out: MIC, VRE (VanB)
VRE (VanA), MMX 486 [7] = experiment: microbe, parasite or virus in culture; conditions: Enterococcus, read-out: MIC, VRE (VanA)
[8] = system: vancomycin-susceptible enterococci, ATCC 29212; experiment: organism not typed; conditions: read-out: MIC, VSE

MIC [6] [µg/mL]	MIC (VRE (VanA), MMX 486 [7]) [µg/mL]	MIC [8] [µg/mL]	Molecule	MIC, MRSA [1] [µg/mL]	MIC, MSSA [2] [µg/mL]	MIC, VRE (VanB) [3] [µg/mL]	MIC, VSE [4] [µg/mL]	MIC, VRE (VanA) (VRE (VanA), MMX 486 [5]) [µg/mL]
–	–	–	Teicoplanin	0.5	0.5	0.25	0.25	>64
–	–	–	CN[C@H](CC(C)C)C(=O)N[C@H]1C(=O)N[C@@H](CC(N)=O)C(=O)N[C@H]2C(=O)N[C@H]3C(=O)N[C@H](C(=O)N[C@H](C(=O)O)c4cc(O)cc(O)c4-c4cc3ccc4O)[C@H](O)c3ccc(c(Cl)c3)Oc3cc2cc(c3O[C@@H]2O[C@H](CO)[C@@H](O)[C@H](O)[C@H]2O[C@H]2C[C@](C)(N)[C@H](O)[C@H](C)O2)Oc2ccc(cc2Cl)[C@H]1O [Vancomycin]	1 (≈ 0.69 µM)	0.5 (≈ 0.345 µM)	16 (≈ 11 µM)	2 (≈ 1.38 µM)	>64
–	–	–	teicoplanin A2-2	0.5	0.5	0.25	0.25	>64
2 (≈ 5.93 µM)	2 (≈ 5.93 µM)	2 (≈ 5.93 µM)	CC(=O)NC[C@H]1CN(c2ccc(N3CCOCC3)c(F)c2)C(=O)O1 [Linezolid]	–	–	–	–	–
